ChEMBL document CHEMBL4261543, “Integrating docking scores and key interaction profiles to improve the accuracy of molecular docking: towards novel B-RafV600E inhibitors” (Medchemcomm, 2017)

The compounds below were run against Serine/threonine-protein kinase B-raf (Homo sapiens, UniProt P15056, V600E) (assay: Inhibition of B-Raf V600E mutant (unknown origin) using fluorescein-MAP2K1 as substrate after 1 hr by electrophoretic assay).
Serine/threonine-protein kinase B-raf, sequence (P15056 2-766 V600E limits assumed): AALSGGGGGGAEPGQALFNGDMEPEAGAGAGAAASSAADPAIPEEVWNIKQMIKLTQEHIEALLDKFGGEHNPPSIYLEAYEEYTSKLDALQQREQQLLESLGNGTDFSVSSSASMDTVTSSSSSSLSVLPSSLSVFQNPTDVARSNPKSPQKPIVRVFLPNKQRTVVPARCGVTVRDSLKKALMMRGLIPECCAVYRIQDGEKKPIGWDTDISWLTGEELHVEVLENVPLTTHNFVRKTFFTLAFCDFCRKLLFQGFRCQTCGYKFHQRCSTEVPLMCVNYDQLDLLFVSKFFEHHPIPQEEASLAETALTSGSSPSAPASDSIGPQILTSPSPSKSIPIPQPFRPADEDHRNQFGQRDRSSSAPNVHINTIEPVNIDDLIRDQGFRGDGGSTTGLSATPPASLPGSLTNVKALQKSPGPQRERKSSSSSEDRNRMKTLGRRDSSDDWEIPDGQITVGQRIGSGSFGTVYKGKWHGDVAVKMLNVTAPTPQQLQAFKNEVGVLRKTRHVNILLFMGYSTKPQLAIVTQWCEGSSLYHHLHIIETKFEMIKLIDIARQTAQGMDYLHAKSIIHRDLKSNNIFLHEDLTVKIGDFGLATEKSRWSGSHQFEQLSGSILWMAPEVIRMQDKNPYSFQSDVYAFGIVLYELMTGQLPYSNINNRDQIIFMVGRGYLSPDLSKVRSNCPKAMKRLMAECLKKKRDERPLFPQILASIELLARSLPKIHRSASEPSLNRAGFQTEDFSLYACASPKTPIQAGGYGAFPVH
In the case of `CCCS(=O)(=O)Nc1ccc(Cl)c(C(=O)Nc2cnc3[nH]cc(OC)c3c2)c1F`, the IC50 is reported as 1.7 nM.
Work on `CCCS(=O)(=O)Nc1ccc(F)c(C(=O)Nc2cnc3[nH]ccc3c2)c1F` yielded an IC50 of 17 nM.
`CCCS(=O)(=O)Nc1ccc(F)c(C(=O)Nc2cnc3[nH]ccc3c2)c1C` showed an IC50 of 38 nM.
In the case of `O=c1c(O)c(-c2ccc(O)c(O)c2)oc2cc(O)cc(O)c12` [QUERCETIN], the IC50 is reported as 7590 nM.
`CCCS(=O)(=O)Nc1ccc(F)c(C(=O)Nc2cnc3[nH]cc(C)c3c2)c1F` gave an IC50 of 12 nM.
Work on `O=c1c(O)c(-c2cc(O)c(O)c(O)c2)oc2cc(O)cc(O)c12` [MYRICETIN] yielded an IC50 of 1560 nM.
In the case of `CCCS(=O)(=O)Nc1ccc(F)c(C(=O)Nc2cnc3[nH]cc(N(C)C)c3c2)c1F`, the IC50 is reported as 8.2 nM.
`CCCS(=O)(=O)Nc1ccc(F)c(C(=O)Nc2cnc3[nH]cc(Br)c3c2)c1F` gave an IC50 of 3.4 to 4 nM.
In the case of `CCCS(=O)(=O)Nc1ccc(F)c(C(=O)Nc2cnc3[nH]cc(OC)c3c2)c1F`, the IC50 is reported as 4.8 nM.
`CCCS(=O)(=O)Nc1ccc(Cl)c(C(=O)Nc2cnc3[nH]ccc3c2)c1F` showed an IC50 of 6.3 nM.
`CCCS(=O)(=O)Nc1ccc(F)c(C(=O)Nc2ccc(N)nc2)c1F` gave an IC50 of 917 to 920 nM.
Work on `CCCS(=O)(=O)Nc1ccc(F)c(C(=O)Nc2cnc3[nH]cnc3c2)c1C` yielded an IC50 of 61 nM.

Each compound was assayed on Serine/threonine-protein kinase B-raf (Homo sapiens), P15056 [V600E] (assay: Inhibition of B-Raf V600E mutant (unknown origin) at 10 uM using fluorescein-MAP2K1 as substrate after 1 hr by electrophoretic assay relative to control).
Serine/threonine-protein kinase B-raf (Homo sapiens), P15056 [V600E], sequence (P15056 whole entry V600E): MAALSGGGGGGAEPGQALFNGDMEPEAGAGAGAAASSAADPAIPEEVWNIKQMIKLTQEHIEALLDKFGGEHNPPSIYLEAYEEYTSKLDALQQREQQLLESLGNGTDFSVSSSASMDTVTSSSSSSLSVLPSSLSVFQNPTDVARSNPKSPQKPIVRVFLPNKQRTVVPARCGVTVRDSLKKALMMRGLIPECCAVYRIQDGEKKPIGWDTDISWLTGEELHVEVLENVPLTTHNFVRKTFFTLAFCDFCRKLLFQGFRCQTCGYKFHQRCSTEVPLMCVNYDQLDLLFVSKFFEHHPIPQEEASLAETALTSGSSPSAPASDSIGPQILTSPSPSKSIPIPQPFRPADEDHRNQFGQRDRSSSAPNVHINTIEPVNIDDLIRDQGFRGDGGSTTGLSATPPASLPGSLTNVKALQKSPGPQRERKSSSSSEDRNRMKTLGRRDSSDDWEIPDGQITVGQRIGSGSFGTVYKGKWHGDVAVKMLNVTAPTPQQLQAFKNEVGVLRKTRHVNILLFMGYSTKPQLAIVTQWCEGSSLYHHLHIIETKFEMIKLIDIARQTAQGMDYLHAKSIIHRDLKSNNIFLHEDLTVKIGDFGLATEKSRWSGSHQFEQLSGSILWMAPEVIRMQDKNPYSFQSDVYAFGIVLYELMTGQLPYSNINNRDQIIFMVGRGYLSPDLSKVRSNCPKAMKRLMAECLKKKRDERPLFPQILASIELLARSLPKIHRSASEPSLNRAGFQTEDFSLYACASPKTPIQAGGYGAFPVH
Compound `CC(C)c1nc(-c2cccc(NS(=O)(=O)c3cccc(F)c3)c2)c(-c2ccnc(NCCCN(C)C)n2)s1` has an inhibition greater than 40%.
Compound `CN(C)CCNC(=O)c1ccc(Nc2ncc3cc(-c4ccncc4)ccc3n2)cc1` has an inhibition greater than 40%.
In the case of `COCCNC(=O)c1ccc(Nc2ncc3cc(-c4cncnc4)ccc3n2)cc1`, the inhibition is reported as greater than 40%.
With `CCCS(=O)(=O)Nc1ccc(Cl)c(NC(=O)c2cccc3c(N)ncnc23)c1F` the inhibition was greater than 40%.
Work on `C[C@@H](NC1=CC(=O)CNC1)c1ccc(Nc2ncc3cc(-c4ccncc4)ccc3n2)cc1` yielded an inhibition greater than 40%.
`Nc1ncnc2c(C(=O)Nc3c(Cl)ccc(NS(=O)(=O)CCCF)c3F)csc12` showed an inhibition greater than 40%.
`COCCNC(=O)c1ccc(Nc2ncc3cc(-c4ccncc4Cl)ccc3n2)cc1` was tested, and the inhibition was greater than 40%.
For `CC(C)c1nc(-c2ccc(F)c(NS(=O)(=O)c3c(F)cccc3F)c2)c(-c2ccnc(Nc3ccc(N4CCOCC4)nc3)n2)s1`, the inhibition was greater than 40%.
With `COCCOc1ccc(Nc2ncc3cc(-c4ccncc4)ccc3n2)cc1` the inhibition was greater than 40%.
Work on `CCCS(=O)(=O)Nc1ccc(Cl)c(C(=O)Nc2cnc3[nH]cc(OC)c3c2)c1F` yielded an inhibition greater than 40%.
`CCCS(=O)(=O)Nc1ccc(F)c(-c2cc3cnccc3n(CCc3ccccc3)c2=O)c1F` was tested, and the inhibition was greater than 40%.
For `CCCS(=O)(=O)Nc1ccc(F)c(C(=O)Nc2cnc3[nH]ccc3c2)c1F`, the inhibition was greater than 40%.
For `CCCS(=O)(=O)Nc1ccc(F)c(C(=O)Nc2cnc3[nH]ccc3c2)c1C`, the inhibition was greater than 40%.
For `CC(C)c1nc(-c2cccc(NS(=O)(=O)c3c(F)cccc3F)c2)c(-c2ccnc(N)n2)s1`, the inhibition was greater than 40%.
`CCCS(=O)(=O)Nc1ccc(F)c(NC(=O)c2cccc3c(N)ncnc23)c1Cl` gave an inhibition greater than 40%.
For `O=C(NCCN1CCCC1)c1ccc(Nc2ncc3cc(-c4ccncc4)ccc3n2)cc1`, the inhibition was greater than 40%.
`CCCS(=O)(=O)Nc1ccc(F)c(-c2ccc3ccncc3n2)c1F` showed an inhibition greater than 40%.
With `CC(=O)N(C)c1ccc(Nc2ncc3cc(-c4ccncc4)ccc3n2)cc1` the inhibition was greater than 40%.
`CCCS(=O)(=O)Nc1ccc(F)c(-c2ccc3cc(N)ncc3c2)c1F` was tested, and the inhibition was greater than 40%.
For `CCCS(=O)(=O)Nc1ccc(F)c(NC(=O)N(C)c2cc(N)ncn2)c1F`, the inhibition was greater than 40%.
Compound `CCCS(=O)(=O)Nc1ccc(F)c(C(=O)Nc2cnc3[nH]cc(C)c3c2)c1F` has an inhibition greater than 40%.
In the case of `COCCNC(=O)c1ccc(Nc2ncc3cc(-c4ccc(F)nc4)ccc3n2)cc1`, the inhibition is reported as greater than 40%.
`CCCS(=O)(=O)Nc1ccc(F)c(C(=O)Nc2cnc3[nH]cc(N(C)C)c3c2)c1F` showed an inhibition greater than 40%.
`CCCS(=O)(=O)Nc1ccc(F)c(-c2cc3cnc(NCCCO)nc3n(C)c2=O)c1F` gave an inhibition greater than 40%.
`CCCS(=O)(=O)Nc1ccc(F)c(NC(=O)Nc2cc(N)ncn2)c1F` showed an inhibition greater than 40%.
In the case of `CCCS(=O)(=O)Nc1ccc(F)c(-c2cc3cnc(Nc4cnn(C)c4)nc3n(C)c2=O)c1F`, the inhibition is reported as greater than 40%.
For `CCCS(=O)(=O)Nc1ccc(F)c(-c2cc3cnc(NCC4CC4)nc3n(C)c2=O)c1F`, the inhibition was greater than 40%.
Compound `CCCS(=O)(=O)Nc1ccc(F)c(-c2cc3cnccc3cn2)c1F` has an inhibition greater than 40%.
`CCCS(=O)(=O)Nc1ccc(F)c(NC(=O)c2csc3c(N)ncnc23)c1Cl` was tested, and the inhibition was greater than 40%.
`C[C@@H](NC(=O)C1CCNCC1)c1ccc(Nc2ncc3cc(-c4ccncc4)ccc3n2)cc1` was tested, and the inhibition was greater than 40%.
For `CCCS(=O)(=O)Nc1ccc(F)c(-c2cc3cnc(NC)nc3n(C)c2=O)c1F`, the inhibition was greater than 40%.
Compound `COCCNC(=O)c1ccc(Nc2ncc3cc(-c4ccncc4OC)ccc3n2)cc1` has an inhibition greater than 40%.
`CCCS(=O)(=O)Nc1ccc(F)c(C(=O)Nc2cnc3[nH]nc(OC)c3c2)c1F` showed an inhibition greater than 40%.
Compound `CC(=O)N[C@H](C)c1ccc(Nc2ncc3cc(-c4ccncc4)c(C)cc3n2)cc1` has an inhibition greater than 40%.
`COCCNC(=O)c1ccc(Nc2ncc3cc(-c4ccncc4C)ccc3n2)cc1` showed an inhibition greater than 40%.
Compound `CCCS(=O)(=O)Nc1ccc(F)c(-c2cc3cnc(Nc4cccnc4)nc3n(C)c2=O)c1F` has an inhibition greater than 40%.
Compound `CC(C)c1nc(-c2ccc(F)c(NS(=O)(=O)c3c(F)cccc3F)c2)c(-c2ccnc(NCCS(C)(=O)=O)n2)s1` has an inhibition greater than 40%.
`CCCS(=O)(=O)Nc1ccc(F)c(-c2ccc3nc(N)ncc3c2)c1F` gave an inhibition greater than 40%.
In the case of `CCCS(=O)(=O)Nc1ccc(F)c(C(=O)Nc2cnc3[nH]cc(Br)c3c2)c1F`, the inhibition is reported as greater than 40%.
`CCCS(=O)(=O)Nc1ccc(F)c(C(=O)Nc2cnc3[nH]cc(OC)c3c2)c1F` showed an inhibition greater than 40%.
`COCCNC(=O)c1ccc(Nc2ncc3cc(-c4ccncc4)ccc3n2)cc1F` showed an inhibition greater than 40%.
`CCCS(=O)(=O)Nc1ccc(F)c(NC(=O)Nc2ncnc3[nH]ncc23)c1F` showed an inhibition greater than 40%.
`CC(=O)Nc1ccc(Nc2ncc3cc(-c4ccncc4)ccc3n2)cc1` was tested, and the inhibition was greater than 40%.
Work on `CC(C)c1nc(-c2cccc(NS(=O)(=O)c3c(F)cccc3F)c2)c(-c2ccnc(NCCS(C)(=O)=O)n2)s1` yielded an inhibition greater than 40%.
`CCCS(=O)(=O)Nc1ccc(F)c(-c2cc3cnc(Nc4ccccc4)nc3n(C)c2=O)c1F` showed an inhibition greater than 40%.
Compound `CCCS(=O)(=O)Nc1ccc(F)c(-c2cc3cnc(NC4CCOCC4)nc3n(C)c2=O)c1F` has an inhibition greater than 40%.
`CCCS(=O)(=O)Nc1ccc(C)c(-c2ccc3nc(N)ncc3c2)c1` gave an inhibition greater than 40%.
`CC(C)c1nc(-c2cccc(NS(=O)(=O)c3cccc(F)c3)c2)c(-c2ccnc(NCC(N)=O)n2)s1` showed an inhibition greater than 40%.
`CC(=O)N[C@H](C)c1ccc(Nc2ncc3cc(-c4ccncc4)cc(Cl)c3n2)cc1` showed an inhibition greater than 40%.
`COCCNC(=O)c1ccc(Nc2ncc3cc(-c4ccccc4)ccc3n2)cc1` showed an inhibition greater than 40%.
For `CCCS(=O)(=O)Nc1ccc(Cl)c(NC(=O)c2csc3c(N)ncnc23)c1F`, the inhibition was greater than 40%.
For `COCCNC(=O)c1ccc(Nc2ncc3cc(-c4cccnc4)ccc3n2)cc1`, the inhibition was greater than 40%.
`CCCS(=O)(=O)Nc1ccc(F)c(NC(=O)Nc2cc(NC)ncn2)c1F` showed an inhibition greater than 40%.
Compound `Nc1ncnc2c(C(=O)Nc3c(Cl)ccc(NS(=O)(=O)CCCF)c3F)cccc12` has an inhibition greater than 40%.
With `COCCNC(=O)c1ccc(Nc2ncc3cc(-c4ccc(OC)nc4)ccc3n2)cc1` the inhibition was greater than 40%.
For `CC(C)(C)c1nc(-c2cccc(NS(=O)(=O)c3cc(F)ccc3F)c2)c(-c2ccnc(N)n2)s1`, the inhibition was greater than 40%.
With `CC(C)(C)c1nc(-c2cccc(NS(=O)(=O)c3c(F)cccc3F)c2F)c(-c2ccnc(N)n2)s1` the inhibition was greater than 40%.
With `CCCS(=O)(=O)Nc1ccc(F)c(-c2cc3cnc(NCCO)nc3n(C)c2=O)c1F` the inhibition was greater than 40%.
`C[C@@H](NC(=O)[C@H]1CCCCN1C)c1ccc(Nc2ncc3cc(-c4ccncc4)ccc3n2)cc1` gave an inhibition greater than 40%.
`COCCNC(=O)c1ccc(Nc2ncc3cc(-c4ccnc(C)c4)ccc3n2)cc1` showed an inhibition greater than 40%.
Work on `CCCS(=O)(=O)Nc1ccc(Cl)c(C(=O)Nc2cnc3[nH]ccc3c2)c1F` yielded an inhibition greater than 40%.
Compound `CCCS(=O)(=O)Nc1ccc(F)c(C(=O)Nc2ccc(N)nc2)c1F` has an inhibition greater than 40%.
In the case of `CCCS(=O)(=O)Nc1ccc(F)c(NC(=O)c2cccc3c(N)ncnc23)c1F`, the inhibition is reported as greater than 40%.
`CCCS(=O)(=O)Nc1ccc(F)c(-c2cc3cnccc3c(=O)n2C)c1F` showed an inhibition greater than 40%.
In the case of `CCCS(=O)(=O)Nc1ccc(F)c(NC(=O)Nc2ncnc3[nH]nc(OC)c23)c1F`, the inhibition is reported as greater than 40%.
`CCCS(=O)(=O)Nc1ccc(F)c(C(=O)Nc2cnc3[nH]cnc3c2)c1C` gave an inhibition greater than 40%.
Compound `CN1CCCC1CCNC(=O)c1ccc(Nc2ncc3cc(-c4ccncc4)ccc3n2)cc1` (stereo unspecified) has an inhibition greater than 40%.
In the case of `C[C@@H](NC(=O)[C@H]1CCCCN1CCO)c1ccc(Nc2ncc3cc(-c4ccncc4)ccc3n2)cc1`, the inhibition is reported as greater than 40%.
`CCCS(=O)(=O)Nc1ccc(F)c(C(=O)c2c[nH]c3ncc(-c4ccc(Cl)cc4)cc23)c1F` gave an inhibition greater than 40%.
Compound `c1cc(-c2ccc3nc(Nc4ccc(OCCN5CCCC5)cc4)ncc3c2)ccn1` has an inhibition greater than 40%.
For `CCCS(=O)(=O)Nc1ccc(F)c(-c2cc3cncc(Br)c3cn2)c1F`, the inhibition was greater than 40%.
For `CCCS(=O)(=O)Nc1ccc(F)c(-c2ccc3ccncc3c2)c1F`, the inhibition was greater than 40%.
In the case of `CCCS(=O)(=O)Nc1ccc(F)c(-c2cc3cnc(N)nc3n(C)c2=O)c1F`, the inhibition is reported as greater than 40%.
`CCCS(=O)(=O)Nc1ccc(F)c(NC(=O)c2csc3c(N)ncnc23)c1F` showed an inhibition greater than 40%.
